Reference: ChEMBL document CHEMBL5338775, “Discovery of a Novel Class of PROTACs as Potent and Selective Estrogen Receptor α Degraders to Overcome Endocrine-Resistant Breast Cancer In Vitro and In Vivo” (J Med Chem, 2023)
Calls of active or inactive are those of the source. No cut-off for these calls is given here.

Key:
[1] = Selectivity index, ratio of Ki for ERalpha (unknown origin) to Ki for ERbeta (unknown origin)
MDA-MB-231 = experiment: cells; details: Homo sapiens, MDA-MB-231, 72 h
T47D [2] = experiment: cells; details: Homo sapiens, 72 h
[3] = Selectivity ratio of relative binding affinity for ERalpha (unknown origin) to relative binding affinity to ERbeta (unknown origin)
MCF7 = experiment: cells; details: Homo sapiens, MCF7, 72 h
T47D [4] = experiment: cells; details: Homo sapiens, 72 h; remark: listed apart in the source
Estrogen receptor = biological target: T1, Estrogen receptor (Homo sapiens, UniProt P03372)
T1 sequence (P03372 whole entry): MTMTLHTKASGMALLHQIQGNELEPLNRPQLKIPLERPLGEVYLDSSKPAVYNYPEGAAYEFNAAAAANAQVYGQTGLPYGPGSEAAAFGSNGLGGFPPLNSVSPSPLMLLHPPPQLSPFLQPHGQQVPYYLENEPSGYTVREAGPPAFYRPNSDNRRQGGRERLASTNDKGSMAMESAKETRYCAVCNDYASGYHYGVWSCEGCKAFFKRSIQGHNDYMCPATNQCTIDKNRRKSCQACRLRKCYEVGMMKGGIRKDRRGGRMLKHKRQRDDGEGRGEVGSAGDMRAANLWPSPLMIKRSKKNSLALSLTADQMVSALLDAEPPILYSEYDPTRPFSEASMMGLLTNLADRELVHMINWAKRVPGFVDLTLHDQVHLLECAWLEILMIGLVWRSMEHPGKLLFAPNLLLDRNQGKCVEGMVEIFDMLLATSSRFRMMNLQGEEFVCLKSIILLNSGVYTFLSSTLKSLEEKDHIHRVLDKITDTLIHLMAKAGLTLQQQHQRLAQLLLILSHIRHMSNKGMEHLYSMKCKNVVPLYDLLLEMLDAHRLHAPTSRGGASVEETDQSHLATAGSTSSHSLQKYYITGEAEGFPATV

[5] = biological target: T2, von Hippel-Lindau disease tumor suppressor/Estrogen receptor (Homo sapiens) (UniProt P03372+P40337); experiment: PROTAC activity at VHL/wild type ERalpha in ER-positive human MCF7 cells assessed as induction of ERalpha degradation at 1 uM incubated for 12 hrs by Western blot analysis; format: cell-based
T2 sequence (P40337 whole entry, looked up, one chain of several): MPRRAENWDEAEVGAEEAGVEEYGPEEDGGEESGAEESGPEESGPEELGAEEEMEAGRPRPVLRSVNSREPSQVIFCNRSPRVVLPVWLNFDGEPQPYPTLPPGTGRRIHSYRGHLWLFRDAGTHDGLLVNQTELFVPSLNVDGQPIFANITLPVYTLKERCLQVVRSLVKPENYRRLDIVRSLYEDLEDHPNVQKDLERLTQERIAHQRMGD

T47D [6] = experiment: cells; details: Homo sapiens, 72 h; remark: listed apart in the source
Estrogen receptor beta [7] = biological target: T3, Estrogen receptor beta (Homo sapiens, UniProt Q92731)
T3 sequence (Q92731 whole entry): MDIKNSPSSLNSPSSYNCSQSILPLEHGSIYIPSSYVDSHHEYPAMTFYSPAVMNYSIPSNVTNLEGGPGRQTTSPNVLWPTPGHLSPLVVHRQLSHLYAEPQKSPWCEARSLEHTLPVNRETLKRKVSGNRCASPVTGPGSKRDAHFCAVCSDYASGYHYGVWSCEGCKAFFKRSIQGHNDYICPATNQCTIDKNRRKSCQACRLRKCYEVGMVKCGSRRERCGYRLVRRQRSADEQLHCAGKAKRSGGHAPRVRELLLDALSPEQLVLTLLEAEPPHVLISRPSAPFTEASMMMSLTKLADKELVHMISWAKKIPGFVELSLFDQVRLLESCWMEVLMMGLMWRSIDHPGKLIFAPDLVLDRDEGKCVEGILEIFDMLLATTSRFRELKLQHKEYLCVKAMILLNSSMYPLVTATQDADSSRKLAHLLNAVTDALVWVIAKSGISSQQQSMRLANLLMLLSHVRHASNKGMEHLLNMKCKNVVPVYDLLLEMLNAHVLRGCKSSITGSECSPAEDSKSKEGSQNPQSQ

Estrogen receptor beta [8] = biological target: T3, Estrogen receptor beta; experiment: Binding affinity to ERbeta (unknown origin) assessed as relative binding affinity incubated for 2 hrs by fluorescence polarization assay relative to estradiol
in vitro = details: human, MCF-10A cells
cells = details: Homo sapiens, Tamoxifen-resistant LCC2 cell, 72 h
[9] = biological target: T2, von Hippel-Lindau disease tumor suppressor/Estrogen receptor (Homo sapiens); experiment: PROTAC activity at VHL/wild type ERalpha in ER-positive human T47D cells assessed as induction of ERalpha degradation at 2 uM incubated for 12 hrs by Western blot analysis; format: cell-based
[10] = biological target: T2, von Hippel-Lindau disease tumor suppressor/Estrogen receptor (Homo sapiens); experiment: PROTAC activity at VHL/ERalpha in ER-positive human tamoxifen-resistant LCC2 cells assessed as induction of ERalpha degradation at 2 uM incubated for 12 hrs by Western blot analysis; format: cell-based; details: tamoxifen-resistant LCC2 cell
[11] = biological target: Protein cereblon/Estrogen receptor (Homo sapiens) (UniProt P03372+Q96SW2); experiment: PROTAC activity at CRBN/wild type ERalpha in ER-positive human MCF7 cells assessed as induction of ERalpha degradation at 1 uM incubated for 12 hrs by Western blot analysis; format: cell-based
Sequence of Protein cereblon/Estrogen receptor (Homo sapiens) (Q96SW2 whole entry, looked up, one chain of several): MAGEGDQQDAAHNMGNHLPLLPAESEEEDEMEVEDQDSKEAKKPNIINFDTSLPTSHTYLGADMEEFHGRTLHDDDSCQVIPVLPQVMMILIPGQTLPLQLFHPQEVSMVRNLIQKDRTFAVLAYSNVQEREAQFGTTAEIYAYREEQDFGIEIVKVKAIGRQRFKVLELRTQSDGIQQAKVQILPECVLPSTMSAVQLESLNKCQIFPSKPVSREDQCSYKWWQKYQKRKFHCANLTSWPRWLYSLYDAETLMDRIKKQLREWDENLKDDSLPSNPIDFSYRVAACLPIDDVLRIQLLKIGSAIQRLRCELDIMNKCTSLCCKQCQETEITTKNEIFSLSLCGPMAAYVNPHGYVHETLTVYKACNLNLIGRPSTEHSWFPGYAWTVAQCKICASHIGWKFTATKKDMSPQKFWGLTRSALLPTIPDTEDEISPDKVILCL

## CCN(c1ccc(OCCCCCC(=O)N[C@H](C(=O)N2C[C@H](O)C[C@H]2C(=O)NCc2ccc(-c3scnc3C)cc2)C(C)(C)C)cc1)S(=O)(=O)C1CC2OC1C(c1ccc(O)cc1)=C2c1ccc(O)cc1 (stereo not given in full)
[1]
  Ratio Ki: 5.32
MDA-MB-231
  IC50: > 100 µM
T47D [2]
  IC50: 1.78 µM
[3]
  Selectivity ratio: 1.38
MCF7
  IC50: 1.61 µM
T47D [4]
  IC50: 0.73 µM
Estrogen receptor
  Ki: 1.85 µM
[5]
  Activity: Active
T47D [6]
  IC50: 0.76 µM
Estrogen receptor beta [7]
  Ki: 9.83 µM
Estrogen receptor beta [8]
  RBA: 0.08%
In vitro
  IC50 at 72 h: 5.17 µM
cells
  IC50: 14.2 µM
[9]
  Activity: Active
[10]
  Activity: Active

## Cc1ncsc1-c1ccc(CNC(=O)[C@@H]2C[C@@H](O)CN2C(=O)[C@@H](NC(=O)CCCCCOc2ccc(N(CC(F)(F)F)S(=O)(=O)C3CC4OC3C(c3ccc(O)cc3)=C4c3ccc(O)cc3)cc2)C(C)(C)C)cc1 (stereo not given in full)
[1]
  Ratio Ki: 6.78
MDA-MB-231
  IC50: > 100 µM
T47D [2]
  IC50: 9.28 µM
[3]
  Selectivity ratio: 1.75
MCF7
  IC50: 0.11 µM
T47D [4]
  IC50: 11.3 µM
Estrogen receptor
  Ki: 2.9 µM
[5]
  Activity: Active
T47D [6]
  IC50: 12.6 µM
Estrogen receptor beta [7]
  Ki: 19.7 µM
Estrogen receptor beta [8]
  RBA: 0.04%
In vitro
  IC50 at 72 h: 1.35 µM
cells
  IC50: 13 µM
[9]
  Activity: Active
[10]
  Activity: Active

## O=C(COc1ccc(C2CCC(=O)NC2=O)cc1)NCCCCNC(=O)COc1ccc(N(CC(F)(F)F)S(=O)(=O)C2CC3OC2C(c2ccc(O)cc2)=C3c2ccc(O)cc2)cc1 (stereo not given)
[1]
  Ratio Ki: 3.44
MDA-MB-231
  IC50: > 100 µM
T47D [2]
  IC50: 15.2 µM
[3]
  Selectivity ratio: 0.89
MCF7
  IC50: 0.69 µM
T47D [4]
  IC50: 17.7 µM
Estrogen receptor
  Ki: 1.27 µM
T47D [6]
  IC50: 14.6 µM
Estrogen receptor beta [7]
  Ki: 4.37 µM
Estrogen receptor beta [8]
  RBA: 0.18%
In vitro
  IC50 at 72 h: 9.45 µM
[11]
  Activity: Active
cells
  IC50: 14.5 µM

## CCN(c1ccc(OCCCCCC(=O)Nc2cccc3c2C(=O)N(C2CCC(=O)NC2=O)C3=O)cc1)S(=O)(=O)C1CC2OC1C(c1ccc(O)cc1)=C2c1ccc(O)cc1 (stereo not given)
[1]
  Ratio Ki: 4.52
MDA-MB-231
  IC50: > 100 µM
T47D [2]
  IC50: > 100 µM
[3]
  Selectivity ratio: 1.17
MCF7
  IC50: > 100 µM
T47D [4]
  IC50: > 100 µM
Estrogen receptor
  Ki: 0.97 µM
T47D [6]
  IC50: > 100 µM
Estrogen receptor beta [7]
  Ki: 4.37 µM
Estrogen receptor beta [8]
  RBA: 0.18%
In vitro
  IC50 at 72 h: > 100 µM
[11]
  Activity: inactive
cells
  IC50: > 100 µM

## COc1ccc(N(CC(F)(F)F)S(=O)(=O)C2CC3OC2C(c2ccc(OCCCCCC(=O)N[C@H](C(=O)N4C[C@H](O)C[C@H]4C(=O)N[C@@H](C)c4ccc(-c5scnc5C)cc4)C(C)(C)C)cc2)=C3c2ccc(O)cc2)cc1 (stereo not given in full)
[1]
  Ratio Ki: 10.3
MDA-MB-231
  IC50: > 100 µM
T47D [2]
  IC50: > 30 µM
[3]
  Selectivity ratio: 2.67
MCF7
  IC50: > 10 µM
T47D [4]
  IC50: > 30 µM
Estrogen receptor
  Ki: 2.54 µM
[5]
  Activity: inactive
T47D [6]
  IC50: > 30 µM
Estrogen receptor beta [7]
  Ki: 26.2 µM
Estrogen receptor beta [8]
  RBA: 0.03%
In vitro
  IC50 at 72 h: > 100 µM
cells
  IC50: > 30 µM

## O=C(COc1ccc(C2CCC(=O)NC2=O)cc1)NCCCCCCNC(=O)COc1ccc(N(CC(F)(F)F)S(=O)(=O)C2CC3OC2C(c2ccc(O)cc2)=C3c2ccc(O)cc2)cc1 (stereo not given)
[1]
  Ratio Ki: 6.34
MDA-MB-231
  IC50: > 100 µM
T47D [2]
  IC50: > 30 µM
[3]
  Selectivity ratio: 1.64
MCF7
  IC50: 6.52 µM
T47D [4]
  IC50: > 30 µM
Estrogen receptor
  Ki: 1.13 µM
T47D [6]
  IC50: > 30 µM
Estrogen receptor beta [7]
  Ki: 7.15 µM
Estrogen receptor beta [8]
  RBA: 0.11%
In vitro
  IC50 at 72 h: > 30 µM
[11]
  Activity: Active
cells
  IC50: > 30 µM

## O=C(COc1cccc2c1C(=O)N(C1CCC(=O)NC1=O)C2=O)NCCCCCCCCOc1ccc(N(CC(F)(F)F)S(=O)(=O)C2CC3OC2C(c2ccc(O)cc2)=C3c2ccc(O)cc2)cc1 (stereo not given)
[1]
  Ratio Ki: 3.39
MDA-MB-231
  IC50: > 100 µM
T47D [2]
  IC50: > 50 µM
[3]
  Selectivity ratio: 0.88
MCF7
  IC50: > 50 µM
T47D [4]
  IC50: > 50 µM
Estrogen receptor
  Ki: 1.45 µM
T47D [6]
  IC50: > 50 µM
Estrogen receptor beta [7]
  Ki: 4.91 µM
Estrogen receptor beta [8]
  RBA: 0.16%
In vitro
  IC50 at 72 h: > 100 µM
[11]
  Activity: inactive
cells
  IC50: > 50 µM
